Series [1] relates to PARP1. Put plainly: PARP1 protein expression by Western blot. In kind it is cell-based, human. Conditions: HCC1937 cells irrespective of BRCA1 status, 4 h. On the procedure: FIGS. 3A-3B. […] (FIG. 3A): the effect of COH29 on PARP1 activity in isogenic pairs of breast (HCC1937) and ovarian (UWB1.289) cancer cell lines expressing mutant or wt BRCA1 (wt=+BRCA1 in each case) was assessed in duplicate using procedures described in Materials & Methods; FIG. 3B: the effect of COH29 on PARP1 protein expression in the isogenic HCC1937/HCC1937+BRCA1 cell lines was assessed by Western blot analysis using anti-human PARP1 antibody as the primary antibody. Loading control is β-actin.
For subcellular fractionation, cells were trypsinized and washed with cold PBS solution twice. […] Following centrifugation at 1,000 g for 5 min, the supernatant was collected (i.e., cytoplasmic fraction) and pellets were washed with the same buffer twice. The washed samples were extracted for 40 min on ice with fractionation buffer containing 0.5% NP-40 for nuclear fraction. All the samples were sonicated and clarified by centrifugation at 16,000 g for 15 min. Protein concentrations of all fractions were determined with Bio-Rad Protein Assay (Bio-Rad Laboratories, Hercules, Calif.). Immunoblotting was performed as described previously (21,22). Briefly, equal amounts of boiled protein samples were subjected to SDS-polyacrylamide gel electrophoresis (PAGE) and transferred onto nitrocellulose membranes (Bio-Rad Laboratories). Membranes were blocked for 1 hour in 3% BSA in Tris buffered saline containing 0.05% Tween 20 (TBST) and incubated for 1 hour with primary antibody (1:500 or 1:1000) diluted in TBST containing 1% BSA. After two washes with TBST, membranes were incubated for 1 hour with horseradish peroxidase-conjugated secondary Abs (1:3000 dilution) at room temperature. The immunoblots were visualized on film with the West-Q chemi-luminescence kit (GenDEPOT, Barker, Tex.).
On the technique in general: Immunoblotting shows a protein as a band on a membrane.

Series [2] has as its system SKBR3. Put plainly: Cytotoxicity assay, SKBR3. In kind it is cell-based, human. As to conditions: SKBR3, ER− PR(−) HER2+. How it is done: (§1) The MTT cytotoxicity assay was performed by incubating with MTT and monitoring the MTT formazan formed by viable cells with a microplate reader at a wavelength of 560 nm; the survival ratio was determined using the formula: (Atest−Ablank)/(Acontrol−Ablank)×100%. The cytotoxicity was determined in 96-well plates using the semiautomatic fluorescence-based Digital Imaging Microscopy System (DIMSCAN). DIMSCAN uses digital imaging microscopy to quantify viable cells, which selectively accumulate FDA (fluorescein diacetate; Alfa Aesar, Ward Hill, Mass.). DIMSCAN is capable of measuring cytotoxicity over a 4 log dynamic range by quantifying total fluorescence per well (which is proportional to the number of viable cells) after elimination of the background fluorescence by digital thresholding and eosin Y (Mallinckrodt Baker, Center Valley, Pa.) quenching. Cells were seeded into 96-well plates in 100 μL of complete medium at 2,000 to 5,000 cells per well, depending on cell line growth rate. After overnight incubation, test compound was added to each well at various concentrations in 50 μL of culture medium. […] Total fluorescence per well was then measured using DIMSCAN, and the results were expressed as the ratio of the fluorescence in treated wells to the fluorescence in untreated wells (survival fraction).

For series [3], the system named is HCC1937+BRCA1. Description: Cytotoxicity assay, HCC1937+BRCA1. In kind it is cell-based, human. As to conditions: HCC1937 + BRCA1, triple negative, 72 h. How it is done: All cell lines were acquired from the American Type Culture Collection (Manassas, Va., USA). Cells were maintained in RPMI 1640 medium (Mediatech) with 10% fetal bovine serum, 2 mM glutamine, and 100 U of penicillin and 100 μg of streptomycin per ml of medium (Sigma) at 37° C. in 5% CO2. To isolate HCC1937+BRCA1 cells, parental HCC1937 cells were transfected with pcDNA3.1 plasmid expressing full-length BRCA1 cDNA. Stable transfectant clones were selected and used for drug sensitivity assays. For stable transfection, cells at 30-40% confluence were incubated overnight with […] of plasmid DNA, using FUGENE® 6 transfectin reagent (Roche Molecular Biochemical, Monza, Italy) according to the manufacturer's instructions. Cells were then selected in puromycin (1 μg/ml) (Invitrogen Life Technologies, La Jolla, Calif., USA). After 20 to 30 days, viable puromycin-resistant colonies from HCC1937 transfections were expanded and screened. The clones that stably expressed puromycin and retained growth potential were assayed for BRCA1 expression by Western blot analysis. The restoration of BRCA1 expression in the puromycin-resistant cDNA/transfectant cells was evaluated by Western blot analysis.
The MTT cytotoxicity assay was performed by incubating with MTT and monitoring the MTT formazan formed by viable cells with a microplate reader at a wavelength of 560 nm; the survival ratio was determined using the formula: (Atest−Ablank)/(Acontrol−Ablank)×100%. The cytotoxicity was determined in 96-well plates using the semiautomatic fluorescence-based Digital Imaging Microscopy System (DIMSCAN). DIMSCAN uses digital imaging microscopy to quantify viable cells, which selectively accumulate FDA (fluorescein diacetate; Alfa Aesar, Ward Hill, Mass.). DIMSCAN is capable of measuring cytotoxicity over a 4 log dynamic range by quantifying total fluorescence per well (which is proportional to the number of viable cells) after elimination of the background fluorescence by digital thresholding and eosin Y (Mallinckrodt Baker, Center Valley, Pa.) quenching. […]

Series [4] deals with OVCAR-3. Description: Cytotoxicity assay, OVCAR-3. In kind it is cell-based, human. As to conditions: read-out: IC50, mean ± SEM. On the procedure:
as §1

The test system of series [5] is UWB1.289+BRCA1. Description: Cytotoxicity assay, UWB1.289+BRCA1. Format: cell-based, human. As to conditions: UWB1.289 + BRCA1 (WT), 72 h; read-out: IC50, mean ± SEM. How it is done: as §1
Series [6] has as its system HCC1937. Put plainly: Cytotoxicity assay, HCC1937. Format: cell-based, human. As to conditions: HCC1937, BRCA1 mutant, triple negative, 72 h. On the procedure: All cell lines were acquired from the American Type Culture Collection (Manassas, Va., USA). Cells were maintained in RPMI 1640 medium (Mediatech) with 10% fetal bovine serum, 2 mM glutamine, and 100 U of penicillin and 100 μg of streptomycin per ml of medium (Sigma) at 37° C. in 5% CO2. To isolate HCC1937+BRCA1 cells, parental HCC1937 cells were transfected with pcDNA3.1 plasmid expressing full-length BRCA1 cDNA. Stable transfectant clones were selected and used for drug sensitivity assays. […] The restoration of BRCA1 expression in the puromycin-resistant cDNA/transfectant cells was evaluated by Western blot analysis.
The MTT cytotoxicity assay was performed by incubating with MTT and monitoring the MTT formazan formed by viable cells with a microplate reader at a wavelength of 560 nm; the survival ratio was determined using the formula: (Atest−Ablank)/(Acontrol−Ablank)×100%. The cytotoxicity was determined in 96-well plates using the semiautomatic fluorescence-based Digital Imaging Microscopy System (DIMSCAN). DIMSCAN uses digital imaging microscopy to quantify viable cells, which selectively accumulate FDA (fluorescein diacetate; Alfa Aesar, Ward Hill, Mass.). […] Total fluorescence per well was then measured using DIMSCAN, and the results were expressed as the ratio of the fluorescence in treated wells to the fluorescence in untreated wells (survival fraction).

In series [7] the test system is TOV112D. Description: Cytotoxicity assay, TOV112D. Format: cell-based, human. As to conditions: read-out: IC50, mean ± SEM. How it is done: as §1
For series [8], the system named is A2780-DDDP. Put plainly: Cytotoxicity assay, A2780-DDDP. In kind it is cell-based, human. As to conditions: cisplatin-resistant, read-out: IC50, mean ± SEM. How it is done:
as §1

For series [9], the system named is KB-Gem. Description: Cytotoxicity assay, KB-Gem. In kind it is cell-based, human. As to conditions: gemcitabine-resistant, read-out: IC50, mean ± SEM. How it is done:
as §1

Series [10] relates to OVCAR-4. Description: Cytotoxicity assay, OVCAR-4. Format: cell-based, human. Conditions: read-out: IC50, mean ± SEM. On the procedure: as §1
Series [11] relates to UWB1.289. Put plainly: MTT cytotoxicity assay, UWB1.289. In kind it is cell-based, human. As to conditions: UWB1.289, BRCA1-defective, 72 h; read-out: IC50, mean ± SEM. On the procedure: as §1
(Tetrazolium assays rely on reduction of a dye to a coloured formazan, in cell work by metabolically active cells.)

In series [12] the test system is OV90. Description: MTT cytotoxicity assay, OV90. In kind it is cell-based, human. Conditions: OV90, wild-type BRCA1, 72 h; read-out: IC50, mean ± SEM. On the procedure:
as §1

In series [13] the test system is KB-7D. Put plainly: Cytotoxicity assay, KB-7D. In kind it is cell-based, human. As to conditions: cisplatin-resistant, read-out: IC50, mean ± SEM. On the procedure: as §1
Series [14] concerns wild-type zebrafish embryos. Put plainly: Zebrafish genotoxicity assay. Format: in vivo, Danio rerio. As to conditions: HU 0-50 mM. On the procedure: The PARP1 activity was determined using the PARP1 Chemiluminescent Assay Kit (BPS Bioscience, San Diego) according to the manufacturer's protocol. Briefly, the ribosylation reaction was carried out with activated DNA in PARP assay buffer using test inhibitor, positive control, substrate control and blank reactions, for 1 hour at 25° C. Detection was by streptavidin-HRP with chemiluminescent substrate A and B read in a luminometer. NZebrafish (Danio rerio) were obtained from zebrafish Core facility of Taipei Medical University and maintained at 28° C. on a 14 h light/10 h dark cycle. Embryos were incubated at 28° C. and different developmental stages were determined as described (25). Wild-type embryos were treated with different concentrations of HU (0, 5, 10, 20, 50 mM) or COH29 (0, 10, 20, 50, 100 μM) at 20 hpf to evaluate the mutagenic effect. Fifteen embryos were treated per well condition. […] Embryos were observed using an Olympus IX70-FLA inverted fluorescence microscope. Images were taken using SPOT digital camera system (Diagnostic Instruments, Sterling Heights, Mich., USA) and assembled with Image) software (26).
To assess the genotoxicity of COH29, wild-type zebrafish embryos were treated from 1 to 7 dpf (day post-fertilization) with a range of doses of COH29 (0-100 μM) and compared to embryos similarly treated with HU (0-50 mM) which is known to cause developmental defects.

For `C[C@]1(c2nc3c(C(N)=O)cccc3[nH]2)CCCN1` [ABT-888, reference compound], in series [1], the PARP1 protein level result was “significant reduction”.
What is called IC50 is the concentration that gives 50% inhibition. Turning to `N.N.[Cl][Pt][Cl]` [Cisplatin], the concentration for half-maximal inhibition (IC50) in series [2] was found to be 990 ± 240 nM; in [3], 2930 ± 550 nM; in [4], 1640 ± 40 nM; in series [5], 7400 ± 2020 nM; in series [6] it was 2460 ± 110 nM; in series [7], 1320 ± 200 nM. Moreover, the IC50 worked out at 5020 ± 1180 nM in series [8]; 380 ± 30 nM in series [9]; 2250 ± 250 nM in [10]; 1430 ± 870 nM in [11]; 1570 ± 290 nM in series [12]; 7500 ± 300 nM in series [13].
Consider `NC(=O)NO` [HU, hydroxyurea, reference compound], for which, in series [14], the “number of mutant embryos” value is recorded as “dose-dependent increase”. In addition, the developmental defects result in [14] (embryos treated 1 to 7 dpf, COH29 0-100 μM) is “caused defects in eyes and heart by 4 dpf”.

These data come from US20210267948A1, “TREATMENT OF CANCER” (CITY OF HOPE, priority 2017, published 2021).
